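Where inhibition never reached the appropriate level, the endpoint shown equals the highest concentration tested. Otherwise, values were interpolated linearly from a five-concentration, 48-hour dose response in 96-well plates. GI50 is the concentration that inhibits growth by half. TGI marks complete inhibition of growth.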
What was measured:
Experiment in all cases: inhibition of tumour cell growth, NCI panel, 48 h
[1] = test system: A549 NSCLC
[2] = test system: EKVX NSCLC
[3] = test system: HS 578T breast
[4] = test system: LOX IMVI melanoma
[5] = test system: MDA-MB-231 breast
[6] = test system: NCI-H23 lung
[7] = test system: SW-620 colon
[8] = test system: TK-10 renal
[9] = test system: U251 CNS
[10] = test system: HT29 colon

| SMILES | GI50 [1] [µM] | TGI [1] [µM] | GI50 [2] [µM] | TGI [2] [µM] | GI50 [3] [µM] | TGI [3] [µM] | GI50 [4] [µM] | TGI [4] [µM] | GI50 [5] [µM] | TGI [5] [µM] | GI50 [6] [µM] | TGI [6] [µM] | GI50 [7] [µM] | TGI [7] [µM] | GI50 [8] [µM] | TGI [8] [µM] | GI50 [9] [µM] | TGI [9] [µM] | TGI [10] [µM] | GI50 [10] [µM] |
| --- | --- | --- | --- | --- | --- | --- | --- | --- | --- | --- | --- | --- | --- | --- | --- | --- | --- | --- | --- | --- |
| CCCCCCCCCCCCCCCC1=NC(C)(C)CN1C(C)C | 1.81 | 3.43 | 1.74 | 4.24 | 1.62 | 3.87 | 1.45 | 2.8 | 1.61 | 3.1 | 1.49 | 2.81 | 1.52 | 2.85 | 1.44 | 2.74 | 1.51 | 2.84 |  |  |
| CCCCCCCCCCC(C)CCCCCCC(=O)O (centres undefined) |  | > 100 |  | > 100 |  |  |  | > 100 |  |  |  | > 100 |  | > 100 |  | > 100 |  | > 100 | > 100 |  |
| CC1(C)C(=O)/C(=C\c2cccnc2)C[C@]2(C)[C@H]3CC[C@@H]4[C@@H](C(=O)/C=C/c5ccncc5)CC[C@@]4(C)[C@]3(C)CC[C@@H]12 | 2.62 | 10.7 | 2.82 | 9.2 | 2.78 | 7.93 | 1.38 | 2.95 | 2.96 | 9.94 |  |  | 1.81 | 4.59 | 2.7 | 5.29 | 1.62 | 3.03 | 8.64 | 2.41 |
| CCN(CC)CCNC(=O)c1cccc2nc3ccccc3nc12 |  | > 89.1 |  | > 65.4 |  |  |  | 29.5 |  |  |  | 31.8 |  | > 47.1 |  | > 100 |  | > 79.6 | 28.3 |  |
| O=C1C(Cl)=C(Nc2cccc(C(F)(F)F)c2)C(=O)N1Cc1ccc(Cl)cc1 | 1.13 | 16.9 |  |  | 0.711 | 33 | 0.241 | 5.15 | 0.207 | 8.74 | 0.162 | 8.01 | 0.0609 | 16.9 | 1.08 | 19.3 | 0.0371 | 13.1 | 24.9 | 0.595 |
| O=C(CC/C(CC(=O)c1ccc(Br)cc1)=N\O)Nc1ccc(Cl)c(Cl)c1 |  | > 100 |  | > 100 |  |  |  | > 100 |  |  |  | > 100 |  | > 100 |  | > 100 |  | > 100 | > 100 |  |
| CN(C)CC/C(=N\Nc1ccc(Cl)cc1Cl)c1ccccc1 |  | 29.6 |  | 43.1 |  |  |  | 28 |  |  |  | 31.6 |  | 29.5 |  | 28.3 |  | 24.8 | 28.9 |  |
| CCC[CH2][Sn]1([CH2]CCC)[O]CC(C)[O]1 (centres undefined) | 9.72 | 21.8 | 1.83 | 4 |  |  | 1.23 | 2.66 |  |  | 0.749 | 2.08 | 0.46 | 1.83 | 1.26 | 2.56 | 1.39 | 2.72 | 3.44 | 1.74 |
| Cn1cc(C2=C(N3CCOCC3)C(=O)NC2=O)c2ccccc21 | > 25 | > 25 |  |  | > 25 | > 25 | > 25 | > 25 | > 25 | > 25 | > 25 | > 25 | > 25 | > 25 | > 25 | > 25 | > 25 | > 25 | > 25 | > 25 |
| Cc1cccc2c(O)cc(=O)oc12 |  | > 100 |  | > 100 |  |  |  | > 100 |  |  |  | > 100 |  | > 100 |  | > 100 |  | > 100 | > 100 |  |
| O=C(/C=C\c1ccccc1)N1CCc2ccccc2C1 |  |  |  | > 100 |  | > 100 |  | > 100 |  | > 100 |  | 51.9 |  | > 100 |  | > 100 |  | > 100 | > 100 |  |
| CC(=O)[CH-]C(C)=O.CC(=O)[CH-]C(C)=O.CC[O-].CC[O-].[Ti+4] | > 100 | > 100 |  |  |  |  | > 100 | > 100 |  |  |  |  | > 100 | > 100 | > 100 | > 100 | > 100 | > 100 | > 100 | > 100 |
| NNC(=O)C(=O)N/N=C(\CCC(=O)Nc1ccc(Cl)cc1)Cc1nc2ccccc2s1 |  | > 100 |  | > 100 |  |  |  | 67.5 |  |  |  | > 100 |  | > 100 |  | > 100 |  | > 100 | > 100 |  |
| N.N.O=P([O-])([O-])C1(P(=O)([O-])[O-])CCCCCN1.[Pt+2] | > 100 | > 100 |  |  |  |  | > 100 | > 100 |  |  | > 100 | > 100 | > 100 | > 100 | > 100 | > 100 | 43.5 | > 100 | > 100 | > 100 |
| CC(=O)c1nc2ccccc2n1CC(=O)c1cccc(Cl)c1 | 2.67 | > 100 | 4.33 | > 100 |  |  | 0.59 | > 100 | 1.07 | > 100 | 0.522 | > 47.5 | 0.278 | > 100 | 3.22 | 99.7 | 0.534 | > 100 | > 100 | 11.6 |
| O=C(CCC(=O)C1CCC/C1=N/O)Nc1ccc(Cl)cc1 (centres undefined) |  | > 100 |  | > 100 |  |  |  |  |  |  |  | > 100 |  | > 100 |  | > 100 |  | > 100 | > 100 |  |
| CC#Cc1nc(Nc2cc(C)[nH]n2)c2ccccc2n1 | 5.16 | 26.8 |  |  | 2.28 | 8.41 | 2.07 | 4.4 | 2.85 | 9.34 | 5.27 | 41.6 | 4.54 | 32.4 | 3.57 | 21.2 | 11.3 | 27.4 | 16.9 | 3.71 |

Reference: PubChem BioAssay (NCI)
